The values that follow come from US5212165A, “Method for rehabilitating the vasorelaxant action of the coronary arteries impaired through atherosclerosis or hypercholesterolemia employing an ACE inhibitor” (E. R. Squibb & Sons, Inc., priority 1989, dated 1993).

Read-outs that look alike come from different tables or passages of the source. No end group written: not given here.

Assay [1] deals with K^+ depolarized arteries (iliac rings). The assay is described as follows: Contractile responses to CaCl2 in K^+ depolarized iliac rings from cynomolgus monkeys. Further details: species or system cynomolgus (Macaca fascicularis) monkeys. The following applies: Mean ± SEM. The text has this:
(§1) Twenty-four male cynomolgus (Macaca fascicularis) monkeys were divided into four groups of six animals each. During the course of the study, one of the control monkeys was sacrificed due to ill health unrelated to the study. Each group was fed a different diet for six months. The control group ate a normal diet of monkey biscuit. The cholesterol group ate a specially formulated monkey diet containing cholesterol. The cholesterol +low captopril group ate the cholesterol diet supplemented with captopril (50 mg/kg divided into two daily doses). The cholesterol+high captopril group ate the cholesterol diet and a higher total dose of captopril (100 mg/kg divided into two daily doses).
(§2) The monkeys were sedated with an intramuscular injection of ketamine (10 mg/kg), then anesthetized with pentobarbital (25 mg/kg). The iliac arteries were carefully dissected, cleaned of surrounding connective tissue, and refrigerated overnight for use the following day.
(§3) On the day of the experiment, three iliac rings (3 mm wide) from each animal were cut and mounted for isometric force recording. Each ring was attached to a micrometer for the control of muscle length and to a Grass FT.03 force transducer and Grass 7D recorder. The rings were placed in warm (37° C.), oxygenated, physiological salt solution (PSS) of the following composition (in mM): 140.0 NaCl, 4.7 KCl, 1.2 MgSO4, 1.6 CaCl2, 1.2 NaH2 PO4, 5.6 D-glucose, 2.0 2-(N-morpholino)propanesulfonic acid (MOPS, pH 7.4 at 37° C.), and 0.02 Na2 -ethylenediaminetetraacetic acid (EDTA). The rings were stretched to a preload of 5 g during a 2 hour equilibration period, then stimulated with 1 μM phenylephrine to test for viability and relaxed with 100 nM acetylcholine to test for endothelial function. Stock solutions of phenylphrine, acetylcholine, propranolol, and sodium nitroprusside were prepared daily in water; nifedipine stock solutions were prepared daily in ethanol.
(§4) The voltage-dependent calcium channels were studied in one ring from each monkey. The protocol consisted of depleting the cells of calcium by exposing the rings to a Ca-free, EGTA (ethylene glycol-bis(β-aminoethyl ether)N,N,N',N'-tetraacetic acid) PSS (omission of CaCl2 and addition of 0.1 mM EGTA) for 30 minutes. The EGTA was subsequently removed from the tissues with three washes of Ca-free PSS (simple omission of CaCl2). Following that, the rings were bathed in Ca-free, K^+ PSS (omission of CaCl2 and isoosmotic substitution of KCl for NaCl such that the KCl concentration was 110 mM) for 30 minutes. A CaCl2 concentration-response curve was obtained by replacing the bath solution with K^+ PSS containing incremental increases in CaCl2 concentration (0.1, 0.3, 0.5, 1.0, 1.25, 1.6, and 2.5 mM). The maximal contractions, in response to 2.5 mM CaCl2, were then relaxed incrementally with nifedipine. Another iliac ring (fade control) from each monkey was subjected to the same protocol with the exception that the strips were allowed to remain contracted and the nifedipine concentration-response curve was not obtained. Some fade of the CaCl2 -induced force was observed over the time period required for the nifedipine concentration-response curve. This fade was accounted for by decreasing the amount of relaxation observed upon addition of nifedipine by the amount of fade observed in the time control from the same monkey.
(§5) Data are presented as mean±SEM. The IC50 and EC50 values were estimated by linearly interpolating from the concentration-response curves. The EC50 values for each ring were used to determine the means for each treatment group.
Concentration-response curves to CaCl2 in K^+ depolarized rings were obtained following depletion of tissue calcium by repeated washing in Ca-free PSS first with, then without, EGTA. There were no differences in the responses to CaCl2 among any of the treatment groups (Table 1).

Assay [2] has as its system vascular relaxation in response to EN-D (ACh) and EN-I (Na nitroprusside) agonists. The following applies: rats, cited from earlier work; for vascular relaxations in response to EN-D (ACh) and EN-I (Na nitroprusside) agonists: oral.
For assay [3], the system named is isolated aorta from hypertensive rats. The following applies: cited from earlier work.
In assay [4] the test system is delayed cerebral arteriospasm. The settings on record: cited from earlier work.
Assay [5] has as its system phenylephrine-contracted isolated iliac arteries. As to the kind of experiment: Acetylcholine-induced relaxation of phenylephrine-contracted isolated iliac arteries from cynomolgus monkeys. Further details: species or system cynomolgus (Macaca fascicularis) monkeys. The following applies: for EC50: Macaca fascicularis, non-responder excluded, Mean ± SEM; for maximum force generated in response to phenylephrine (before acetylcholine): non-responders excluded, mean±SEM.
Text: as §1, §2, §3
(§6) Alpha-adrenoceptor and endothelial cell function were examined in the third ring from each monkey. In the presence of 0.1 μM propranolol, a cumulative concentration-response curve to phenylephrine was obtained, then the phenylephrine was washed out of the baths and the rings were allowed to relax completely. The rings were subsequently contracted with an EC50 concentration of phenylephrine (1 μM) and, following stabilization of the contraction, the rings were treated with increasing concentrations of acetylcholine, followed by 100 nM sodium nitroprusside.
as §5
For each monkey, the EC50 for acetylcholine relaxation was calculated by linearly interpolating from the concentration-response curves. When 50% relaxation was not achieved, the value of the EC50 was set to 30 μM a value larger than any of the experimental concentrations of acetylcholine).
Linear contrast of mean ranks in the groups were constructed with a variance estimate for the contrast based on the Kruskal-Wallis statistic (Dunn 1964).
In the analyses, the following coefficients were employed: i) for an overall test, the coefficients were 3 for the cholesterol group, 1 for the control group, -1 for the cholesterol+low captopril group, and -3 for the cholesterol+high captopril group, based on prior expectations of likely results; ii) for a test of the cholesterol effect, the coefficients were 1 for the cholesterol group, -1 for the control group, 0 for the cholestrol+low captopril group, and 0 for the cholesterol+high captopril group; iii) for a test of the captopril effect, the coefficients were 0 for the cholesterol group, 1 for the […], 0 for the cholesterol+low captopril group, and -1 for the cholesterol+high captopril group.
All statistical results reported are based on one-sided tests. […]

In assay [6] the test system is angina patients. The settings on record: 12 angina patients; Thuermann et al; cited from earlier work.
Assay [7] relates to voltage-dependent calcium channels (iliac rings). The assay is described as follows: Relaxation responses to nifedipine of CaCl2-contracted iliac rings from cynomolgus monkeys. The following applies: Macaca fascicularis, contracted with 2.5 mM CaCl2 in K^+ PSS, mean±SEM. Further details: species or system cynomolgus (Macaca fascicularis) monkeys.
Text: as §1, §2, §3, §4
Data are presented as mean±SEM. The IC50 and EC50 values were estimated by linearly interpolating from the concentration-response curves. […]

For assay [8], the system named is alpha-adrenoceptor (isolated iliac arteries). As to the kind of experiment: Contractile responses to phenylephrine of isolated iliac arteries from cynomolgus monkeys. Also on record: species or system cynomolgus (Macaca fascicularis) monkeys. The settings on record: Mean ± SEM; for EC50: Macaca fascicularis, read-out: EC50 (phenylephrine-induced contraction).
Text: as §1, §2, §3, §6, §5
Phenylephrine concentration-response curves were obtained in iliac rings from all groups of monkeys.

The test system of assay [9] is isolated rat hearts. The settings on record: interaction with ARG-I, ARG-II and BK; Schoelkens et al; cited from earlier work.
In assay [10] the test system is acute cerebral arteriospasm. The settings on record: after subarachnoid hemorrhage, dog, angiographic; cited from earlier work.
Assay [11] has as its system delayed cerebral vasospasm of the basilar artery and its branches. The settings on record: by injection; Gavras et al; cited from earlier work.
Assay [12] concerns rabbit veins. The following applies: in vitro; cited from earlier work.
The test system of assay [13] is rat stomach. The following applies: in vitro; cited from earlier work.
Assay [14] concerns rabbit or human platelets. The settings on record: in vitro; cited from earlier work.
In assay [15] the test system is guinea pig or rat lungs. The following applies: infusion through guinea pig or rat lungs; cited from earlier work.
In assay [16] the test system is rat mesenteric veins. The settings on record: cited from earlier work.

Broadly, the EC50 is the concentration needed to bring the measured effect to its halfway point. In the case of `[Ca+2].[Cl-].[Cl-]` [CaCl2], in [1] (Cholesterol group), the EC50 came to 200000 ± 30000 nM and the “Max Force (CaCl2)” value was found to be 18.2 ± 1.6 g. For the same compound, in assay [1] (Control group), the EC50 stood at 140000 ± 10000 nM and the “Max Force (CaCl2)” value amounted to 18.5 ± 1.1 g.

With `COc1ccc2c(c1)c(CC(=O)O)c(C)n2C(=O)c1ccc(Cl)cc1` [Indomethacin], the “effect on ACh-induced relaxation” value in assay [2] is given as “did not prevent the effect of ACh”. For the same compound, the “effect on relaxation responses” value in assay [3] (isolated aorta, hypertensive and normotensive rats) is recorded as “unaffected”.

For the compound `C[C@H](N[C@@H](CCc1ccccc1)C(=O)O)C(=O)N1CCC[C@H]1C(=O)O` [MK-422], the “restoring arterial width in delayed cerebral arteriospasm” value in assay [4] (four dogs, injectable form, unpublished data, preliminary) is recorded as “at least as effective as teprotide”.

For the compound `CC(=O)OCC[N+](C)(C)C` [acetylcholine], the EC50 in assay [5] (Cholesterol group, N 5, EC50 set at 30 μM if <50% relaxation) is 16200 ± 7200 nM; in assay [5] (Control group, N 4), 300 ± 100 nM.

In the case of `CCOC(=O)C(CCc1ccccc1)N[C@@H](C)C(=O)N1CCC[C@H]1C(=O)O` (stereo partly drawn) [enalapril, N-(1-ethoxycarbonyl-3-phenylpropyl)-L-alanyl-L-proline], the anti-ischemic effect entry in [6] was “shown to have an anti-ischemic effect”. In addition, the “vascular relaxations in response to EN-D (ACh) and EN-I (Na nitroprusside) agonists” value in [2] is on record as “differentially affected vascular relaxations”. Also, in assay [3] (P.o., salt-induced hypertension, rat), the “normalization of relaxation responses and prevention of hypertension” value is recorded as “ineffective”.

Regarding `NNc1nncc2ccccc12` [hydralazine], the “vascular relaxations in response to EN-D (ACh) and EN-I (Na nitroprusside) agonists” value in assay [2] was “differentially affected vascular relaxations”.

A word on the IC50: it is the concentration that inhibits the measured activity by half. Take `COC(=O)C1=C(C)NC(C)=C(C(=O)OC)C1c1ccccc1[N+](=O)[O-]` [nifedipine]: the IC50 in assay [7] (cholesterol group) stood at 22.8 ± 5.6 nM; in [7] (cholesterol+high captopril group), 11.5 ± 1.8 nM; in assay [7] (cholesterol+low captopril group) it was 18.8 ± 6.6 nM; in assay [7] (control group), 11.4 ± 2.3 nM.

Turning to `CNC[C@H](O)c1cccc(O)c1` [phenylephrine], the “Max Force (phenylephrine-induced contraction)” value is reported as 17.3 ± 3.3 g in assay [8] (Cholesterol group) and 22.5 ± 1.6 g in [8] (Control group). Moreover, the EC50 is 1200 ± 300 nM in assay [8] (Cholesterol group) and 800 ± 100 nM in assay [8] (Control group). Besides, the “maximum force generated in response to phenylephrine (before acetylcholine)” value in [5] (cholesterol group) amounted to 11.0 ± 2.6 g; in assay [5] (control group), 14.3 ± 1.4 g.

Turning to `Oc1cccc(O)c1O` [pyrogallol], the “effect on ACh-induced relaxation” value in assay [2] was “did inhibit ACh-induced relaxations”.

`CCOC(=O)[C@H](CCc1ccccc1)N[C@@H](C)C(=O)N1[C@H](C(=O)O)C[C@@H]2CCC[C@@H]21` [ramipril]: the local cardioprotective actions result in assay [9] is on record as “BK is involved in the local cardioprotective actions of RP”.

Take `CC[C@H](C)[C@H](NC(=O)[C@H](CCC(N)=O)NC(=O)[C@@H]1CCCN1C(=O)[C@H](CCCNC(=N)N)NC(=O)[C@@H]1CCCN1C(=O)[C@H](Cc1c[nH]c2ccccc12)NC(=O)[C@@H]1CCC(=O)N1)C(=O)N1CCC[C@H]1C(=O)N1CCC[C@H]1C(=O)O` [teprotide]: the “effect on acute cerebral arteriospasm” value in assay [10] is on record as “effective”. In addition, in assay [4] (dog, in vivo), the “effect on delayed established cerebral arteriospasm” value was “could reverse that spasm as well”. Also, the “release of delayed cerebral vasospasm” value in assay [11] is reported as “partial or total release”.

In the case of “endothelin: endothelin (EL) (CSCSSLMDKECVYFCHLDIIW; ends and bridges not checked; cysteine pairing not given here; UniProt P05305 53-73, looked up)”, the “contraction of rabbit veins” value in [12] is “contracted rabbit veins”. Moreover, in [13], the “contraction of rat stomach” value was “contracted rabbit veins and rat stomach”. Further, the platelet aggregation result in [14] is “did not aggregate rabbit or human platelets or prevent their aggregation”. In [15], the “release of PG12 and TXA2” value was “release PG12 and TXA2”. Also, the vasoconstriction result in assay [16] (at higher doses) is on record as “vasoconstriction”. Further, the “dilatation of rat mesenteric veins” value in assay [16] (via EDRF release) was “dilated rat mesenteric veins”.
